Values quoted from earlier work in US20220054615A1 (priority 2018, published 2022).

Experiments:
IgG2a = settings: mouse, in vivo
[1] = system: human peripheral blood mononuclear cells (PBMCs)

CCCCCCCCCCCC(=O)CC(=O)N[C@H](COCC[C@@H](CCCCCCC)OC(=O)CCCCCCCCCCC)COP(=O)([O-])OCCNC(=O)NCCOP(=O)([O-])OC[C@@H](COCC[C@@H](CCCCCCC)OC(=O)CCCCCCCCCCC)NC(=O)CC(=O)CCCCCCCCCCC.[Na+].[Na+] [E6020, dodecanoic acid, (1R,6R, 22R, 27R)-1,27-dihexyl-9,19-dihydroxy-9,19-dioxido-14-oxo-6,22-bis [(1,3-di oxotetradecyl)amino]-4,8,10, 18, 20, 24-hexaoxa-13,15-di aza-9,19-dephosphaheptacosane-1,27-diyl ester, disodium salt]
enhance: IgG2a (IgG2a) | GM-CSF, IL-1, IL-6 and TNF-α [1] | GM-CSF, IL-1, IL-6 and TNF-α (mouse spleen)
